The source made the active and inactive calls. No cut-off for these calls is given here.
Tests used:
[1] = test system: MKN-45; test: Antiproliferative activity against human MKN-45 cells incubated for 72 hrs by CCK8 assay; assay type: functional, cell-based; details: MKN-45, 72 h
[2] = biological target: T1, Protein cereblon/Hepatocyte growth factor receptor (Homo sapiens, UniProt P08581+Q96SW2); test: PROTAC activity at CRBN/c-MET in human MKN-45 cells assessed as induction of c-MET degradation at 100 to 1000 nM incubated for 24 hrs by Western blot analysis relative to control; assay type: cell-based; details: dose 100-1000 nM
T1 sequence (P08581 25-1390 limits assumed): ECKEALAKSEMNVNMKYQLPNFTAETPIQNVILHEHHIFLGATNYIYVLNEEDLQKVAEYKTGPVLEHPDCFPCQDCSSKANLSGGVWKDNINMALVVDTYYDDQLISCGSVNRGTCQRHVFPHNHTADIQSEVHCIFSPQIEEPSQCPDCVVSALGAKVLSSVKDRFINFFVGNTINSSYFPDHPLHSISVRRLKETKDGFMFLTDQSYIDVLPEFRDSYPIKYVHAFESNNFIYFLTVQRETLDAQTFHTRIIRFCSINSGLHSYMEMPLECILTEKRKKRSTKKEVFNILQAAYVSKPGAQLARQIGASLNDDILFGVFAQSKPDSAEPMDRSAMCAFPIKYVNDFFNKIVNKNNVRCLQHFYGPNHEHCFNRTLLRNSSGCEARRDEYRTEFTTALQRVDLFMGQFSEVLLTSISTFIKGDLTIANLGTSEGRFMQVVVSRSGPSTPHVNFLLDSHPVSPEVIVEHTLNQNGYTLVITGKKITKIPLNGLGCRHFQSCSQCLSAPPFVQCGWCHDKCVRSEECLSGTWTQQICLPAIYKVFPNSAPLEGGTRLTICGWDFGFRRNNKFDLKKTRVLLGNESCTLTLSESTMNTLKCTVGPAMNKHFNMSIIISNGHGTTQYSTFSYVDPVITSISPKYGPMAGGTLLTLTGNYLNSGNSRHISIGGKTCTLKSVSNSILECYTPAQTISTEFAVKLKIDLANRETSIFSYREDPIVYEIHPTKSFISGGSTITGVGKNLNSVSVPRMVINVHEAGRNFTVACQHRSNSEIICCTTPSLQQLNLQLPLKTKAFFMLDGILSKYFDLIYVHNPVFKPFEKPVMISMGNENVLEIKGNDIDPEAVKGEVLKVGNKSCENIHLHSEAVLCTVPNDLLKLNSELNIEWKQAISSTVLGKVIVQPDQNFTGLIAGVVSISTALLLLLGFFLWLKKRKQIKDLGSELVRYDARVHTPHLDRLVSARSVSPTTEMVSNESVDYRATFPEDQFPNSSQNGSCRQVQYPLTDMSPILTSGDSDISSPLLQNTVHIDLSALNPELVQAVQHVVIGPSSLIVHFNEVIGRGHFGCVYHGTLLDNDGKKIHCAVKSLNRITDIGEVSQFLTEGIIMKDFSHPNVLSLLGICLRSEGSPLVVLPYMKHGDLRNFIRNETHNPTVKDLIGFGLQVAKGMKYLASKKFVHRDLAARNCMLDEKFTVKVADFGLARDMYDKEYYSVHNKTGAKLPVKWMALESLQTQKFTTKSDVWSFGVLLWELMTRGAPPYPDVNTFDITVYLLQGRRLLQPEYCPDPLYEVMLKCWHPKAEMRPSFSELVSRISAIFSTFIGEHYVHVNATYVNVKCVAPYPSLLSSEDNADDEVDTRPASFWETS
T1 sequence (Q96SW2 whole entry partner): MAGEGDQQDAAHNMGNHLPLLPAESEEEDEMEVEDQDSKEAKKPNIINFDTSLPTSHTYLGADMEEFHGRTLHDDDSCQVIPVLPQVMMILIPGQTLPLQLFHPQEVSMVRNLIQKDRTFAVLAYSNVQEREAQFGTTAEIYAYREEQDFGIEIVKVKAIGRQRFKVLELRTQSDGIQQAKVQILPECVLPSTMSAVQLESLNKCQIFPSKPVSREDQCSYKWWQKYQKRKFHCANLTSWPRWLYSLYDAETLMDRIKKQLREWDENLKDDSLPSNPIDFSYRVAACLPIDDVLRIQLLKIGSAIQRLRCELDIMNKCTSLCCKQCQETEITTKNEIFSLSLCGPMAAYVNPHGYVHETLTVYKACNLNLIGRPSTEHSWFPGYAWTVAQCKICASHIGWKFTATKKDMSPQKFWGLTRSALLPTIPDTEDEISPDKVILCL

[3] = biological target: T1, Protein cereblon/Hepatocyte growth factor receptor; test: PROTAC activity at CRBN/c-MET in human MKN-45 cells assessed as induction of c-MET degradation by measuring maximal efficacy incubated for 24 hrs by Western blot analysis relative to control; assay type: cell-based
[4] = biological target: T1, Protein cereblon/Hepatocyte growth factor receptor; test: PROTAC activity at CRBN/c-MET in human MKN-45 cells assessed as induction of c-MET degradation at 100 nM incubated for 2 to 16 hrs by Western blot analysis; assay type: cell-based; details: time 2-16 hrs
[5] = biological target: T1, Protein cereblon/Hepatocyte growth factor receptor; test: PROTAC activity at CRBN/c-MET in human Hs746T cells assessed as induction of c-MET degradation at 12.5 to 200 nM incubated for 24 hrs by Western blot analysis; assay type: cell-based; details: dose 12.5-200 nM
[6] = biological target: T1, Protein cereblon/Hepatocyte growth factor receptor; test: PROTAC activity at CRBN/c-MET in human PC-9 cells assessed as induction of c-MET degradation at 3.125 to 50 nM incubated for 24 hrs by Western blot analysis; assay type: cell-based; details: dose 3.125-50 nM
[7] = test system: PC-9; test: Inhibition of c-MET/Akt signaling pathway activation in human PC-9 cells at 3.125 to 50 nM incubated for 24 hrs by Western blot analysis; assay type: cell-based; details: dose 3.125-50 nM
[8] = test system: PC-9; test: Cell cycle arrest in human PC-9 cells assessed as accumulation of cells at G0/G1 phase incubated for 48 hrs by PI staining based flow cytometric analysis; assay type: functional; details: dose 3.125-50 nM
[9] = test system: PC-9; test: Induction of apoptosis in human PC-9 cells at 3.125 to 50 nM incubated for 48 hrs by Annexin V-FITC/PI staining based flow cytometric analysis; assay type: functional, cell-based; details: dose 3.125-50 nM
[10] = biological target: T1, Protein cereblon/Hepatocyte growth factor receptor; test: PROTAC activity at CRBN/c-MET in human NGEC cells assessed as induction of c-MET degradation upto 50 nM incubated for 24 hrs by Western blot analysis; assay type: cell-based; details: NGEC cell
[11] = biological target: T1, Protein cereblon/Hepatocyte growth factor receptor; test: PROTAC activity at CRBN/c-MET in human A549 cells assessed as induction of c-MET degradation at 12.5 to 200 nM incubated for 24 hrs by Western blot analysis; assay type: cell-based; details: dose 12.5-200 nM
[12] = biological target: T1, Protein cereblon/Hepatocyte growth factor receptor; test: PROTAC activity at CRBN/c-MET in human MKN-45 cells assessed as induction of c-MET degradation at 100 nM preincubated with capmatinib for 2 hrs followed by compound addition and measured after 24 hrs by Western blot analysis; assay type: cell-based
[13] = biological target: T1, Protein cereblon/Hepatocyte growth factor receptor; test: PROTAC activity at CRBN/c-MET in human MKN-45 cells assessed as induction of c-MET degradation at 100 nM preincubated with MG132 for 2 hrs followed by compound addition and measured after 24 hrs by Western blot analysis; assay type: cell-based
[14] = biological target: T1, Protein cereblon/Hepatocyte growth factor receptor; test: PROTAC activity at CRBN/c-MET in human MKN-45 cells assessed as induction of c-MET degradation at 100 nM preincubated with MLN4924 for 2 hrs followed by compound addition and measured after 24 hrs by Western blot analysis; assay type: cell-based
[15] = Tmax in male Sprague-Dawley rat at 10 mg/kg, iv measured after 24 hrs by LC-MS/MS analysis; assay type: ADME, organism-based; details: in vivo
[16] = Cmax in male Sprague-Dawley rat at 10 mg/kg, iv measured after 24 hrs by LC-MS/MS analysis; assay type: ADME, organism-based; details: in vivo
[17] = test system: MKN-45; test: Upregulation of HSPG2 protein level in human MKN-45 cells at 100 nM incubated for 24 hrs by MS-based quantitative proteomics analysis; assay type: functional, cell-based
[18] = test system: MKN-45; test: Downregulation of ULK2B protein level in human MKN-45 cells at 100 nM incubated for 24 hrs by MS-based quantitative proteomics analysis; assay type: functional, cell-based
[19] = biological target: T1, Protein cereblon/Hepatocyte growth factor receptor; test: PROTAC activity at CRBN/c-MET in human MKN-45 cells assessed as induction of c-MET degradation at 6.25 to 100 nM incubated for 24 hrs by Western blot analysis; assay type: cell-based; details: dose 6.25-100 nM
[20] = test system: MKN-45; test: Downregulation of SLC7A1 protein level in human MKN-45 cells at 100 nM incubated for 24 hrs by MS-based quantitative proteomics analysis; assay type: functional, cell-based
[21] = biological target: Protein cereblon/Importin subunit alpha-1 (Homo sapiens) (UniProt P52292+Q96SW2); test: PROTAC activity at CRBN/KPNA2 in human MKN-45 cells assessed as induction of c-MET degradation at 6.25 to 100 nM incubated for 24 hrs by Western blot analysis; assay type: cell-based; details: dose 6.25-100 nM
[22] = test system: MKN-45; test: Antitumor activity against human MKN-45 cells xenografted in BALB/c nude mouse assessed as reduction in tumor growth administered orally as once daily dose for 21 days; assay type: functional; details: dose 10-40 mg/kg, route po, time 21.0 day
[23] = test system: MKN-45; test: Antitumor activity against human MKN-45 cells xenografted in BALB/c nude mouse assessed as reduction in tumor growth at 10 mg/kg, po administered once daily for 21 days; assay type: functional, organism-based; details: time 21.0 day
[24] = Toxicity in BALB/c nude mouse xenografted with human MKN-45 cells assessed as body weight loss at 10 to 40 mg/kg, po administered once daily for 21 days; assay type: organism-based; details: in vivo, 504 h, dose 10-40 mg/kg, time 21 day
[25] = Toxicity in BALB/c nude mouse xenografted with human MKN-45 cells assessed as effect on liver morphology at 10 to 40 mg/kg, po administered once daily for 21 days by H and E staining based analysis; assay type: organism-based; details: in vivo, 504 h, dose 10-40 mg/kg, time 21 day
[26] = Toxicity in BALB/c nude mouse xenografted with human MKN-45 cells assessed as effect on spleen morphology at 10 to 40 mg/kg, po administered once daily for 21 days by H and E staining based analysis; assay type: organism-based; details: in vivo, 504 h, dose 10-40 mg/kg, time 21 day
[27] = Toxicity in BALB/c nude mouse xenografted with human MKN-45 cells assessed as effect on kidney morphology at 10 to 40 mg/kg, po administered once daily for 21 days by H and E staining based analysis; assay type: organism-based; details: in vivo, 504 h, dose 10-40 mg/kg, time 21 day
[28] = test system: Mus musculus; test: Downregulation of c-MET protein level in BALB/c nude mouse lung xenografted with human MKN-45 cells at 10 mg/kg, po measured after 48 hrs by Western blot analysis; assay type: functional, organism-based
[29] = Half-life in male Sprague-Dawley rat at 10 mg/kg, po measured after 24 hrs by LC-MS/MS analysis; assay type: ADME, organism-based; details: in vivo
[30] = Cmax in male Sprague-Dawley rat at 10 mg/kg, po measured after 24 hrs by LC-MS/MS analysis; assay type: ADME, organism-based; details: in vivo
[31] = MRT (0 to infinity) in male Sprague-Dawley rat at 10 mg/kg, po measured after 24 hrs by LC-MS/MS analysis; assay type: ADME, organism-based; details: in vivo
[32] = AUC (0 to infinity) in male Sprague-Dawley rat at 10 mg/kg, iv measured after 24 hrs by LC-MS/MS analysis; assay type: ADME, organism-based; details: in vivo
[33] = MRT (0 to infinity) in male Sprague-Dawley rat at 10 mg/kg, iv measured after 24 hrs by LC-MS/MS analysis; assay type: ADME, organism-based; details: in vivo
[34] = Oral bioavailability in male Sprague-Dawley rat at 10 mg/kg measured after 24 hrs by LC-MS/MS analysis; assay type: ADME, organism-based; details: in vivo

IC50 [1]: 4.37 nM
Activity [2]: 100%
Emax [3]: 96.8%
Activity [4]: Active
Activity [5]: Active
Activity [6]: Active
Activity [10]: Weak_effect
Activity [11]: inactive
Activity [12]: inactive
Activity [13]: inactive
Activity [14]: inactive
Tmax [15]: 4.8 min
Cmax [16]: 1.65 µg/mL
Activity [19]: Active
Activity [21]: inactive
half-life [29]: 4.13 h
Cmax [30]: 0.0707 µg/mL
MRT inf [31]: 6.66 h
AUC(0-inf) [32]: 2.52 µg·h/mL
MRT inf [33]: 2.56 h
bioavailability [34]: 16.3%
SMILES: O=C1CCC(N2C(=O)c3ccc(N4CCN(CC5CCN(C(=O)c6ccc(-c7cnc8ncc(Cc9ccc%10ncccc%10c9)n8n7)cc6F)CC5)CC4)cc3C2=O)C(=O)N1 (centres undefined)
inhibition [7]: Active
Activity [8]: Dose-dependent-effect
Activity [9]: Active; Little Effect Observed
Activity [17]: Active
Activity [18]: Active
Activity [20]: Active
Activity [22]: Dose-dependent-effect
Activity [23]: Active; Significant Effect Observed
Activity [24]: Non-toxic
Activity [25]: Non-toxic
Activity [26]: Non-toxic
Activity [27]: Non-toxic
Activity [28]: Not active; Favorable Tissue Specificity Of Compound Observed

Reference: ChEMBL document CHEMBL6120971 (J Med Chem, 2024)
